From PMC9492542, “Brain-restricted mTOR inhibition with binary pharmacology” (Nature, 2022)
Values joined by “and” are separate entries in the source; they are usually repeats but may differ in a detail not shown here. Identical values can stand only once. Like-named read-outs stand apart in the source and are kept apart here.

Key:
[1] = system: GBM43; test: Orthotopic intracranial GBM43-luciferase patient-derived glioblastoma xenograft; conditions: GBM43-Luc
[2] = system: U87MG; test: Orthotopic intracranial U87MG-luciferase glioblastoma xenograft
[3] = molecular target: MTORC1; test: Equilibrium constants for mTORC1 binding used in the model; conditions: read-out: Kd4 (drug binding to MTORC1 without FKBP); estimated, affinity of the TORKi portion for MTORC1
[4] = molecular target: T1, mTOR (Homo sapiens, UniProt P42345); test: In vitro mTOR kinase inhibition assay (SelectScreen Z'-LYTE), with or without 10 µM FKBP12; type: biochemical; conditions: for residual kinase activity (mTOR): listed as RL-1
T1 construct: We performed in vitro kinase assays with purified mTOR protein; purchased SelectScreen Services (Thermo Fisher Scientific)
T1 sequence (P42345 1360-2549 limits assumed): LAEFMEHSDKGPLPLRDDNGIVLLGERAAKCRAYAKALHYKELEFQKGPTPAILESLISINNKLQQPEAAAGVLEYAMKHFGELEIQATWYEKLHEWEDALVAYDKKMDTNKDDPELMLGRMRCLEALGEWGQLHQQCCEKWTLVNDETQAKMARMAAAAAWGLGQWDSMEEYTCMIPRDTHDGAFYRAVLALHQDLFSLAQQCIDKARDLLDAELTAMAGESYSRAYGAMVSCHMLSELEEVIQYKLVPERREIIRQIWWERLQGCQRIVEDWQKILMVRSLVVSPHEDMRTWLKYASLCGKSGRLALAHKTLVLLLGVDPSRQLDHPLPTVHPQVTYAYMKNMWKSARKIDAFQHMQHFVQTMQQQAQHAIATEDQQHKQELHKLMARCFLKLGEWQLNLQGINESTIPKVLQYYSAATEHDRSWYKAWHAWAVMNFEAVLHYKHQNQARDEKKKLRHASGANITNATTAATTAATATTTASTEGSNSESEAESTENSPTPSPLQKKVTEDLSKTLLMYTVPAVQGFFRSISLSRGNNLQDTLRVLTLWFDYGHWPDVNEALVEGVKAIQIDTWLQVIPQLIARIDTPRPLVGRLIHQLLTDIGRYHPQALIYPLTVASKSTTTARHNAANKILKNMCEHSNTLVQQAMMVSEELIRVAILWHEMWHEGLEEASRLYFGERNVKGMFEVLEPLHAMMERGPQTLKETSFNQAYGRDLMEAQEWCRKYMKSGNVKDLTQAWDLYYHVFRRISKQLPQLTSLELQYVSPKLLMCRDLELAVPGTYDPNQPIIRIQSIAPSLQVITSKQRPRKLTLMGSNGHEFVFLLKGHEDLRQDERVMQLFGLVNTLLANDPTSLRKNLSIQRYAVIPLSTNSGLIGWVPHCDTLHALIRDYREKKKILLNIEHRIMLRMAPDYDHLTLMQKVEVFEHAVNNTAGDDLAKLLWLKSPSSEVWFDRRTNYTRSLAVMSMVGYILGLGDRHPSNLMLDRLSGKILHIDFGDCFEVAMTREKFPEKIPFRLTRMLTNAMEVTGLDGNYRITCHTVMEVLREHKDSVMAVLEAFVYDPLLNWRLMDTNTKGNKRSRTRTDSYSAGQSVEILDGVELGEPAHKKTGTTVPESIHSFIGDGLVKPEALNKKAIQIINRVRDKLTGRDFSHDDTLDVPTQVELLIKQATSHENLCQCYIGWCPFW
Method: In vitro kinase inhibition assays were performed by SelectScreen Services (Thermo Fisher Scientific) using either Z’-LYTE (mTOR, Src, Csk, EGFR, HER2 and HGK), Adapta (LRRK2) or LanthaScreen (DDR2) assay format (standardized protocols can be accessed on the SelectScreen website: https://www.thermofisher.com/us/en/home/products-and-services/services/custom-services/screening-and-profiling-services/selectscreen-profiling-service/selectscreen-kinase-profiling-service.html. When indicated, recombinant FKBP12 protein was added to the assay mixture to a final concentration of 10 µM.

[5] = system: mTOR; test: mTOR signalling in mouse whole brain and skeletal muscle after single i.p. dose (immunoblot, insulin stimulated); type: in vivo; conditions: for p-4EBP1 Brain, fold relative to no insulin, normalized to GAPDH / p-4EBP1 Muscle, fold relative to no insulin, normalized to GAPDH / p-RPS6 Brain, fold relative to no insulin, normalized to GAPDH / p-RPS6 Muscle, fold relative to no insulin, normalized to GAPDH: RL1 1 mg/kg, RB 40 mg/kg, insulin 250 mU, listed as RL1
Method: Whole brain and skeletal muscle were analyzed by immunoblot.

[6] = system: human PBMCs; test: Proliferation of anti-CD3/anti-CD28 stimulated PBMCs (120 h); type: cell-based; design: PBMC cell proliferation: unit not given here
[7] = U87MG-Luc, day 0, individual mice
[8] = U87MG-Luc, day 5, individual mice
[9] = U87MG-Luc, day 10, individual mice
[10] = U87MG-Luc, day 15, individual mice
[11] = U87MG-Luc, day 20, individual mice
[12] = U87MG-Luc, day 25, individual mice
[13] = BALB/c nu/nu mice, RapaLink-1 1 mg per kg, RapaBlock 40 mg per kg, 4 h or 24 h

CO[C@H]1C[C@@H]2CC[C@@H](C)[C@@](O)(O2)C(=O)C(=O)N2CCCC[C@H]2C(=O)O[C@H]([C@H](C)C[C@@H]2CC[C@@H](OCCOCc3cn(CCOCCOCCOCCOCCOCCOCCOCCOCCC(=O)NCCCCn4nc(-c5ccc6oc(N)nc6c5)c5c(N)ncnc54)nn3)[C@H](OC)C2)CC(=O)[C@H](C)/C=C(\C)[C@@H](O)[C@@H](OC)C(=O)[C@H](C)C[C@H](C)/C=C/C=C/C=C/1C [RapaLink-1]
Mouse weight ([1]; day 0, individual mice): 23.5 g and 21.9 g and 22.3 g and 22.1 g and 19.3 g and 21.6 g
Tumor size (measured by bioluminescence) ([1]; day 0, individual mice): 9520000 and 3020000 and 1670000 and 519000 and 248000 and 80200
Mouse weight ([1]; day 4, individual mice): 22.9 g and 20.8 g and 22.2 g (2×) and 23.1 g and 20.1 g
Tumor size (measured by bioluminescence) ([1]; day 4, individual mice): 1310000 and 940000 and 1040000 and 482000 and 175000 and 141000
Mouse weight ([1]; day 7, individual mice): 22.7 g and 19.8 g and 21.2 g and 20.8 g and 19.6 g and 22.9 g
Tumor size (measured by bioluminescence) ([1]; day 7, individual mice): 121000000 and 131000000 and 102000000 and 25200000 and 4850000
Mouse weight ([1]; day 10, individual mice): 20.5 g and 20.2 g and 21.6 g and 20.6 g and 19.4 g and 22 g
Tumor size (measured by bioluminescence) ([1]; day 10, individual mice): 686000000 and 671000000 and 515000000 and 1100000000 and 3050000000 and 2140000
Mouse survival ([1]; individual mice, listed as RL-1): 17 days and 18 days and 19 days
tumour growth and survival ([2]; RapaLink-1 1 mg per kg, RapaBlock 40 mg per kg, i.p. every 5 days): significantly suppressed tumour growth and improved survival
Mouse weight [2, 7]: 25.3 g and 21.6 g and 19 g and 22.3 g and 21.7 g and 23.2 g
Tumor size (measured by bioluminescence) [2, 7]: 4240000 and 1010000 and 1910000 and 5080000 and 3680000 and 9440000
Mouse weight [2, 8]: 26.2 g and 22.3 g and 20.2 g and 23.3 g and 23.2 g (2×)
Tumor size (measured by bioluminescence) [2, 8]: 1460000 and 640000 and 1800000 and 5970000 and 155000 and 7230000
Mouse weight [2, 9]: 26.1 g and 22.4 g (2×) and 20.7 g and 22.7 g and 21.8 g
Tumor size (measured by bioluminescence) [2, 9]: 3420000 and 1030000 and 12000000 and 3100000 and 5850000 and 4400000
Mouse weight [2, 10]: 25.2 g and 22 g and 20.3 g and 23.7 g and 23.4 g and 21.9 g
Tumor size (measured by bioluminescence) [2, 10]: 11100000 and 3790000 and 12200000 and 19000000 and 408000 and 7800000
Mouse weight [2, 11]: 26.4 g and 22.6 g and 21.3 g and 25.8 g and 23.9 g and 23.3 g
Tumor size (measured by bioluminescence) [2, 11]: 53600000 and 17300000 and 32400000 and 53200000 and 63600000 and 11500000
Mouse weight [2, 12]: 22.4 g and 22.3 g and 20.3 g and 24.8 g and 21.6 g and 23.4 g
Tumor size (measured by bioluminescence) [2, 12]: 605000000 and 412000000 and 640000000 and 201000000 and 1240000000 and 128000000
Tumor size (measured by bioluminescence) ([2]; U87MG-Luc, day 30, individual mice): 1100000000 and 366000000 and 814000000 and 167000000
Mouse survival ([2]; U87MG-Luc, individual mice, listed as RL-1): 32 days and 30 days and 41 days and 40 days
Kd [3]: 5 nM
residual kinase activity (mTOR) ([4]; 0.00495 nM drug, +FKBP): 99
remaining activity at 4.95 pM ([4]; 0.00495 nM drug, +FKBP, read-out: residual kinase activity (mTOR)): 95%
residual kinase activity (mTOR) ([4]; 0.00495 nM drug, no FKBP): 100
remaining activity at 4.95 pM ([4]; 0.00495 nM drug, no FKBP, read-out: residual kinase activity (mTOR)): 96%
residual kinase activity (mTOR) ([4]; 0.0152 nM drug, +FKBP): 103
remaining activity at 15.2 pM ([4]; 0.0152 nM drug, +FKBP, read-out: residual kinase activity (mTOR)): 98%
residual kinase activity (mTOR) ([4]; 0.0152 nM drug, no FKBP): 101
remaining activity at 15.2 pM ([4]; 0.0152 nM drug, no FKBP, read-out: residual kinase activity (mTOR)): 100%
residual kinase activity (mTOR) ([4]; 0.0457 nM drug, +FKBP): 103
remaining activity at 45.7 pM ([4]; 0.0457 nM drug, +FKBP, read-out: residual kinase activity (mTOR)): 102%
residual kinase activity (mTOR) ([4]; 0.0457 nM drug, no FKBP): 99
remaining activity at 45.7 pM ([4]; 0.0457 nM drug, no FKBP, read-out: residual kinase activity (mTOR)): 101%
residual kinase activity (mTOR) ([4]; 0.137 nM drug, +FKBP): 99
remaining activity at 0.000137 µM ([4]; 0.137 nM drug, +FKBP, read-out: residual kinase activity (mTOR)): 101%
residual kinase activity (mTOR) ([4]; 0.137 nM drug, no FKBP): 96
remaining activity at 0.000137 µM ([4]; 0.137 nM drug, no FKBP, read-out: residual kinase activity (mTOR)): 97%
remaining activity at 0.000412 µM ([4]; 0.412 nM drug, +FKBP, read-out: residual kinase activity (mTOR)): 97%
residual kinase activity (mTOR) ([4]; 0.412 nM drug, no FKBP): 92
remaining activity at 0.000412 µM ([4]; 0.412 nM drug, no FKBP, read-out: residual kinase activity (mTOR)): 95%
residual kinase activity (mTOR) ([4]; 1.23 nM drug, +FKBP): 86
remaining activity at 0.00123 µM ([4]; 1.23 nM drug, +FKBP, read-out: residual kinase activity (mTOR)): 89%
residual kinase activity (mTOR) ([4]; 1.23 nM drug, no FKBP): 83
remaining activity at 0.00123 µM ([4]; 1.23 nM drug, no FKBP, read-out: residual kinase activity (mTOR)): 87%
residual kinase activity (mTOR) ([4]; 11.1 nM drug, +FKBP): 17
remaining activity at 0.0111 µM ([4]; 11.1 nM drug, +FKBP, read-out: residual kinase activity (mTOR)): 14%
remaining activity at 0.0111 µM ([4]; 11.1 nM drug, no FKBP, read-out: residual kinase activity (mTOR)): 15%
residual kinase activity (mTOR) ([4]; 33.3 nM drug, +FKBP): 4
remaining activity at 0.0333 µM ([4]; 33.3 nM drug, +FKBP, read-out: residual kinase activity (mTOR)): 2%
residual kinase activity (mTOR) ([4]; 33.3 nM drug, no FKBP): 2
remaining activity at 0.0333 µM ([4]; 33.3 nM drug, no FKBP, read-out: residual kinase activity (mTOR)): 3%
residual kinase activity (mTOR) ([4]; 100 nM drug, +FKBP): 2
remaining activity at 0.1 µM ([4]; 100 nM drug, +FKBP, read-out: residual kinase activity (mTOR)): 3%
residual kinase activity (mTOR) ([4]; […] drug, +FKBP): 57
remaining activity at […] ([4]; […] drug, +FKBP, read-out: residual kinase activity (mTOR)): 55%
residual kinase activity (mTOR) ([4]; […] drug, no FKBP): 54
remaining activity at […] ([4]; […] drug, no FKBP, read-out: residual kinase activity (mTOR)): 56%
IC50 for mTOR kinase activity ([4]; purified mTOR, whether FKBP12 was present): identical half-maximal inhibitory concentration (IC50) values as MLN0128
p-4EBP1 Brain, fold relative to no insulin, normalized to GAPDH ([5]; 4h): 1.26 and 1.03 and 0.71
p-4EBP1 Muscle, fold relative to no insulin, normalized to GAPDH ([5]; 4h): 1 and 1.04 and 1.12
p-RPS6 Brain, fold relative to no insulin, normalized to GAPDH ([5]; 4h): 1.23 and 1.15 and 1.11
p-RPS6 Muscle, fold relative to no insulin, normalized to GAPDH ([5]; 4h): 0.9 and 1.3 and 1.14
p-4EBP1 Brain, fold relative to no insulin, normalized to GAPDH ([5]; 24h): 0.98 and 0.96 and 0.78
p-4EBP1 Muscle, fold relative to no insulin, normalized to GAPDH ([5]; 24h): 1.18 and 1.08 and 1.1
p-RPS6 Brain, fold relative to no insulin, normalized to GAPDH ([5]; 24h): 0.89 and 0.78 and 1.52
p-RPS6 Muscle, fold relative to no insulin, normalized to GAPDH ([5]; 24h): 1.11 and 1.39
mTOR activity in brain (p-S6, p-4EBP1) [5, 13]: potently inhibited mTOR signalling in both skeletal muscle and brain tissues
mTOR activity in skeletal muscle (p-S6, p-4EBP1) [5, 13]: potently inhibited mTOR signalling in both skeletal muscle and brain tissues
PBMC cell proliferation ([6]; 0.005081 nM RapaLink-1, +10 μM RapaBlock): 104.4 and 111.7 and 94.4
PBMC cell proliferation ([6]; 0.005081 nM RapaLink-1, No RapaBlock): 115.8 and 102.5 and 98.3
PBMC cell proliferation ([6]; 0.015242 nM RapaLink-1, +10 μM RapaBlock): 110 and 113.9 and 99.3
PBMC cell proliferation ([6]; 0.015242 nM RapaLink-1, No RapaBlock): 121.8 and 109.1 and 110.9
PBMC cell proliferation ([6]; 0.045725 nM RapaLink-1, +10 μM RapaBlock): 112.2 and 110.5 and 104.3
PBMC cell proliferation ([6]; 0.045725 nM RapaLink-1, No RapaBlock): 121.5 and 108 and 104.7
PBMC cell proliferation ([6]; 0.137174 nM RapaLink-1, +10 μM RapaBlock): 110.3 and 116.4 and 104.2
PBMC cell proliferation ([6]; 0.137174 nM RapaLink-1, No RapaBlock): 113.1 and 112.8 and 102.9
PBMC cell proliferation ([6]; 0.411523 nM RapaLink-1, +10 μM RapaBlock): 114.7 and 112.8 and 107.7
PBMC cell proliferation ([6]; 0.411523 nM RapaLink-1, No RapaBlock): 98.2 and 98.7 and 94.9
PBMC cell proliferation ([6]; 1.23457 nM RapaLink-1, +10 μM RapaBlock): 109.6 and 111.8 and 107
PBMC cell proliferation ([6]; 1.23457 nM RapaLink-1, No RapaBlock): 44.3 and 45.5 and 45.3
PBMC cell proliferation ([6]; 3.7037 nM RapaLink-1, +10 μM RapaBlock): 105.8 and 104.9 and 94.5
PBMC cell proliferation ([6]; 3.7037 nM RapaLink-1, No RapaBlock): 29.2 and 28.4 and 25.5
PBMC cell proliferation ([6]; 11.1111 nM RapaLink-1, +10 μM RapaBlock): 84.3 and 94.6 and 81
PBMC cell proliferation ([6]; 11.1111 nM RapaLink-1, No RapaBlock): 13.5 and 22.4 and 19.1
PBMC cell proliferation ([6]; 33.3333 nM RapaLink-1, +10 μM RapaBlock): 64.4 and 70.2 and 62.9
PBMC cell proliferation ([6]; 33.3333 nM RapaLink-1, No RapaBlock): 20.6 and 20 and 17.2
PBMC cell proliferation ([6]; 100 nM RapaLink-1, +10 μM RapaBlock): 39.8 and 43.7 and 38.7
PBMC cell proliferation ([6]; 100 nM RapaLink-1, No RapaBlock): 17.8 and 16.4 and 15.6
inhibition of PBMC proliferation ([6]; 5 days): potently inhibited proliferation of PBMCs at nanomolar concentrations
